Test results as given in US20230303623A1, “PEPTIDES AND METHODS OF USE” (REALTA LIFE SCIENCES, INC., priority 2020, published 2023).

Columns and labels:
VEGF [1] = molecular target: T1, VEGF (Homo sapiens, UniProt P15692); assay: VEGF binding ELISA plate-based assay; conditions: peptides 1 mg/ml
T1 construct: Promega (bioassay)
T1 sequence (P15692 27-191 isoform P15692-4): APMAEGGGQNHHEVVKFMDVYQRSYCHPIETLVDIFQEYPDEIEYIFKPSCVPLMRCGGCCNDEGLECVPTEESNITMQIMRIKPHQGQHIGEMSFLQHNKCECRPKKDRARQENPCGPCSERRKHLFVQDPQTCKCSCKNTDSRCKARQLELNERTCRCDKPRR
Protocol: A fixed amount of PIC1 peptides (1 mg/ml) were added to the plates followed by a rabbit polyclonal antibody that recognizes the peptides and then a secondary anti-rabbit antibody conjugated with HRP. The plate was then developed by addition of TMB as the substrate for the colorimetric assay.
(§1) Angiogenesis, or the formation of new blood vessels from the established vasculature, is an essential element in tumor growth and metastasis formation. Inhibiting tumor angiogenesis is considered a major therapeutic strategy in oncology. […] The bioluminescent signal is detected in a luminometer.

[2] = test system: antibody-initiated complement activation (lysis of AB human red blood cells by type O serum); assay: ABO incompatibility hemolytic complement assay (CH50-type); type: cell-based; conditions: peptides 0.8 mg/ml (~0.5 mM), compared to parent peptide
Protocol: FIG. 1A-1B show PIC1 peptides' inhibition of complement activation in an ABO incompatibility assay. […] Inhibition of ABO incompatibility hemolysis in a CH50-type assay. Peptides are at a final concentration of 0.5 mM. Values are represented as a percent of the positive control, which consists of human 0 sera and AB red blood cells in GVBS^++ buffer. Data are the means of n=3 independent experiments±SEM.
For hemolytic complement assays, human red blood cells (RBCs) from type AB donors were purified, washed, and standardized to 1.0×10^9 cells/ml, as previously described. Human sera from type 0 donors at a 15% final concentration was combined with 0.5 mM of the peptides and the volume was brought up to 0.2 ml with GVBS^++ and 5.0×10^7 RBCs. The samples were incubated for 1 hour at 37° C. and then spun at 3,000 rpm for 5 minutes and the supernatant was collected and read at 412 nm. Values are represented as a percent of the positive control, which consists of human 0 sera and AB red blood cells in GVBS^++ buffer.
To assess the extent to which the peptide variants inhibit antibody-initiated complement activation, an ABO incompatibility ex vivo assay was utilized in which purified erythrocytes from a ‘type AB+’ donor are incubated with sera from a ‘type 0’ subject containing anti-A and anti-B antibodies. Peptides were tested at a concentration of 0.8 mg/ml (˜0.5 mM).

VEGF [3] = molecular target: T1, VEGF; assay: VEGF Bioassay (Promega), VEGF signaling via VEGFR-2 (KDR); type: cell-based
From the text: Luminescence was detected in luminometer plate reader.
as §1

C1q = molecular target: T2, C1q (Homo sapiens, UniProt P02745+P02746+P02747); assay: C1q binding ELISA-type assay; conditions: compared to parent peptide
T2 construct: purchased Complement Technology (Tyler, TX)
Protocol: The C1q binding assay was performed as previously described. Briefly, an Immunlon-2 HB ELISA plate was coated with 1 μg/ml C1q in bicarbonate buffer overnight at 4° C. The plates were washed with PBS-T (phosphate buffered saline+0.1% Tween) and then blocked with 1% gelatin/PBS for 2 hours at room temperature. After washing, the plates were incubated with the peptides starting at 2.5 mg/ml and then serially diluted in 1% gelatin/PBS for 1 hour at room temperature followed by washing. Plates were then probed with rabbit antibody raised against the lead peptide […] (SEQ ID NO: 2) that lacked PEGylation at 1:1000 in 1% gelatin/PBS for 1 hour at room temperature followed by a goat anti-rabbit HRP (Sigma Aldrich, St Louis, MO) at 1:1,000 in 1% gelatin/PBS for 1 hour at room temperature with a washing step in between. After addition of TMB substrate solution to the wells, the reaction was stopped using 1N H2SO4, and the plate read on a BioTek Synergy HT plate reader at 450 nm.
The astrovirus capsid protein and the PIC1 molecules derived from it inhibit classical complement pathway activation by binding to the pattern recognition molecule C1q. The inventors next tested peptide variant binding to C1q in an ELISA-type assay in which C1q is used as the capture substrate and bound peptide detected with a rabbit polyclonal antibody against the peptide portion of PA-dPEG24 ([…]-d24; SEQ ID NO: 3). Binding curves were derived for the stapled and D-amino acid peptides based on the PA-I8Sar and PA-C9Sar (FIG. 5A-5C) backbone, from which half-maximal binding concentrations were calculated (FIGS. 2A and B, respectively). […] For the peptides based on the PA-C9Sar backbone, C1q was bound to a greater degree than the parent peptide (FIG. 2B).

TC-1 cells = assay: TC-1 tumor cell model in C57Bl/6 mice; type: in vivo, mouse
Protocol: Animals were injected with 4×10^5 TC-1 cells subcutaneously into the flank of the animal. Five days later, animals received vehicle treatment with saline (n=6), or drug treatment with RLS-0122 (n=8) IV at 160 mg/kg 1×/day for 15 consecutive days. Animals were also evaluated for behavior and body condition scoring every 2 days for duration of the study. If scoring reached 7 or below, animals were assessed daily. A score of 5 or below was considered endpoint for euthanasia.
To evaluate the efficacy of RLS-0122 in an in vivo system, the inventors utilized the TC-1 tumor cell model in C57Bl/6 mice as previously reported (Roumenina et al., Cancer Immunol Res; 7(7) July 2019). […] When TC-1 cells are introduced into the flank of the mouse, very aggressive tumor formation occurs, resulting in 100% death in approximately 26 days. To test the efficacy of RLS-0122 on survival and quality of life in this model, animals were injected with 4×10^5 TC-1 cells subcutaneously into the flank of the animal. Five days later, animals received vehicle treatment with saline (n=6), or drug treatment with RLS-0122 (n=8) IV at 160 mg/kg 1×/day for 15 consecutive days. […] Animals were also evaluated for behavior and body condition scoring every 2 days for duration of the study. If scoring reached 7 or below, animals were assessed daily. A score of 5 or below was considered endpoint for euthanasia.

T2 sequence (P02745 23-245): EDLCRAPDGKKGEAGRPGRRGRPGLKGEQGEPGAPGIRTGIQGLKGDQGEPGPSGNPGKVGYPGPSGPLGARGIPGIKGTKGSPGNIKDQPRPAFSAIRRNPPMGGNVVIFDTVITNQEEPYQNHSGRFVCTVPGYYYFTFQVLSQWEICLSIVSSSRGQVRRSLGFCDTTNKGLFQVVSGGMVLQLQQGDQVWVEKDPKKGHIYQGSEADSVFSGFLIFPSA
T2 sequence (P02746 28-253): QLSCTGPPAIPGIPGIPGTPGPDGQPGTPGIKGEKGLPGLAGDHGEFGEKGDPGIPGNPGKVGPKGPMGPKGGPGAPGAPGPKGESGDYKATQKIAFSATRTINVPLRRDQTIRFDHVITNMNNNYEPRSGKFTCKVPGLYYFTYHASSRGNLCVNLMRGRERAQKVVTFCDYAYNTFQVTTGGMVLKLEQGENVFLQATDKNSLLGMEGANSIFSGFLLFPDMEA
T2 sequence (P02747 29-245): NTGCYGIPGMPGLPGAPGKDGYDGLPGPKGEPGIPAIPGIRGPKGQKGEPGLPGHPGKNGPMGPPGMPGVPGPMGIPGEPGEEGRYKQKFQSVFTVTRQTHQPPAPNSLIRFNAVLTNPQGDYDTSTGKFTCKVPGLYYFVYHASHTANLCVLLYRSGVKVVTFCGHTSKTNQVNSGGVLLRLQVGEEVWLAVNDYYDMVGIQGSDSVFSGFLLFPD

IAdLILEP(Sar)CCQERAA (IALILEPXCCQERAA; D-Leu; sarcosine; MOD_RES (3)..(3) D-amino acid; MOD_RES (8)..(8) Sarcosine) [PA-0122]
binding to VEGF, in words (VEGF [1]): binding with high affinity
inhibition of ABO incompatible hemolysis (complement inhibition), in words [2]: greater extent
inhibition of ABO incompatible hemolysis (complement inhibition), in words ([2]; listed as RLS-0122): potently block complement activation
inhibition of VEGF signaling via VEGFR-2 (luminescence), in words (VEGF [3]): did not inhibit signaling
binding to C1q (binding curves, half-maximal binding), in words (C1q): markedly increased binding to C1q
median survival longer than vehicle (TC-1 cells; IV 160 mg/kg 1x/day for 15 consecutive days, p=0.0465): 8 days
quality of life (behavior and body condition scoring), in words (TC-1 cells; IV 160 mg/kg 1x/day for 15 days, significant on days 22-26 (p<0.05)): increased quality of life
